In PMC9226124, “Macrocycle-stabilization of its interaction with 14-3-3 increases plasma membrane localization and activity of CFTR” (Nature Communications, 2022):
Values joined by “and” are separate entries in the source; they are usually repeats but may differ in a detail not shown here. Equal entries are not always repeated.

Biological target: T1, 14-3-3β/CFTRpS753pS768 complex (Homo sapiens, UniProt P13569+P31946)
T1 construct: His6 (cleaved yes); made in house; peptide synthetic
Test: FP assay, 14-3-3β titration at constant compound concentration (apparent KD)
Assay type: binding
Conditions: replicates; for Polarization: FC 100 uM, peptide 100 nM; for FP signal, 14-3-3β titration / FP signal: compound 100 μM
Procedure: FC-A (100 µM) was added as a positive control and DMSO as the negative control. […] Background polarization was subtracted from all values, n = 3 technical replicates. […] Source data are provided as a Source Data file. […]
The FITC-labeled peptides were dissolved in FP buffer (10 mM HEPES pH 7.4, 150 mM NaCl, 0.1% Tween20, 1 mg/mL BSA) to a final concentration of 100 nM or 10 nM. […] The dilution series were made in 384 Corning Black Round Bottom well plates and their polarization was measured with a Tecan Infinite F500 plate reader (ex. = 485 nm, em. = 535 nm). The method of fitting of the curves was: “log(agonist) vs. response – Variable slope (four parameters)” from GraphPad Prism. The equation is Y = Bottom + (Top-Bottom)/(1 + 10^((LogEC50-X)*HillSlope)).
from the hit validation library.
f the compound, 100 µM FC-A, or both compound and FC-A, 100 µM each. Background polarization was subtracted f
rom all values, n=3 technical replicates.
Source data are provided as a Source Data file.

T1 sequence (P31946 whole entry): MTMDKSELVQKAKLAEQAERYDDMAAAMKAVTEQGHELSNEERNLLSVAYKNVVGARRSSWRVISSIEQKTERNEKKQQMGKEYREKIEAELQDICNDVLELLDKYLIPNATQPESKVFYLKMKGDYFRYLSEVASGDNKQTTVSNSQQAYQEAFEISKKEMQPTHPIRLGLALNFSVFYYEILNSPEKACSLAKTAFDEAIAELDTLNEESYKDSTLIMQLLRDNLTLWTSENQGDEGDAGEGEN
T1 sequence (P13569 747-774 limits assumed): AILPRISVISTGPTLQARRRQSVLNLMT

## C=CC(C)(C)OC[C@H]1O[C@H](O[C@@H]2C3=C([C@H](C)COC(C)=O)C[C@H](O)[C@]3(C)/C=C3/[C@@H](COC)CC[C@H]3[C@@H](C)[C@H]2O)[C@H](O)[C@@H](OC(C)=O)[C@@H]1O [FC-A, fusicoccin A, reference compound]
14-3-3β 119.2 pM, listed as FC
  Polarization: 20 and 18
14-3-3β 119.2 pM
  FP signal, 14-3-3β titration: 3.333 and 5.333 (2×)
14-3-3β 139.2 pM
  FP signal: 5 (2×) and 3
14-3-3β 238.4 pM, listed as FC
  Polarization: 22 and 21
14-3-3β 238.4 pM
  FP signal, 14-3-3β titration: 3.333 and 4.333 and 2.333
14-3-3β 278.5 pM
  FP signal: 6 and 5 and 4
14-3-3β 476.8 pM, listed as FC
  Polarization: 21 and 19 and 18
14-3-3β 476.8 pM
  FP signal, 14-3-3β titration: 4.333 (2×) and 2.333
14-3-3β 556.9 pM
  FP signal: 6 (2×) and 5
14-3-3β 953.7 pM, listed as FC
  Polarization: 21 and 20 and 18
14-3-3β 953.7 pM
  FP signal, 14-3-3β titration: 4.333 (2×) and 6.333
14-3-3β 1.11389e-9 M
  FP signal: 5 and 7 and 8
14-3-3β 1.90735e-9 M, listed as FC
  Polarization: 18 and 20 and 19
14-3-3β 1.90735e-9 M
  FP signal, 14-3-3β titration: 0.3333 and 5.333 and 3.333
14-3-3β 2.22778e-9 M
  FP signal: 6 and 8 and 5
14-3-3β 3.8147e-9 M, listed as FC
  Polarization: 21 and 19
14-3-3β 3.8147e-9 M
  FP signal, 14-3-3β titration: 0.3333 and 3.333 and 2.333
14-3-3β 4.45557e-9 M
  FP signal: 4 and 7 and 9
14-3-3β 7.62939e-9 M, listed as FC
  Polarization: 20 and 22 and 19
14-3-3β 7.62939e-9 M
  FP signal, 14-3-3β titration: 6.333 and 3.333 and 1.333
14-3-3β 8.91113e-9 M
  FP signal: 4 and 8 and 6
14-3-3β 1.52588e-8 M, listed as FC
  Polarization: 22 and 19
14-3-3β 1.52588e-8 M
  FP signal, 14-3-3β titration: 1.333 and 7.333 and 4.333
14-3-3β 1.78223e-8 M
  FP signal: 6 (2×) and 7
14-3-3β 3.05176e-8 M, listed as FC
  Polarization: 23 and 20 and 22
14-3-3β 3.05176e-8 M
  FP signal, 14-3-3β titration: 2.333 and 4.333 and 5.333
14-3-3β 3.56445e-8 M
  FP signal: 9 (2×) and 7
14-3-3β 6.10352e-8 M, listed as FC
  Polarization: 24 and 25
14-3-3β 6.10352e-8 M
  FP signal, 14-3-3β titration: 7.333 and 6.333 (2×)
14-3-3β 7.12891e-8 M
  FP signal: 10 (2×) and 11
14-3-3β 1.2207e-7 M, listed as FC
  Polarization: 28 and 30
14-3-3β 1.2207e-7 M
  FP signal, 14-3-3β titration: 5.333 and 9.333 and 6.333
14-3-3β 1.42578e-7 M
  FP signal: 15 and 16 and 14
14-3-3β 2.44141e-7 M
  Polarization: 35
  FP signal, 14-3-3β titration: 9.333 and 10.3333 and 5.333
14-3-3β 2.85156e-7 M
  FP signal: 24 and 22 (2×)
14-3-3β 4.88281e-7 M, listed as FC
  Polarization: 48 and 46
14-3-3β 4.88281e-7 M
  FP signal, 14-3-3β titration: 9.333 (2×) and 12.3333
14-3-3β 5.70313e-7 M
  FP signal: 40 (2×) and 33
14-3-3β 9.76563e-7 M, listed as FC
  Polarization: 68 and 64 and 69
14-3-3β 9.76563e-7 M
  FP signal, 14-3-3β titration: 18.3333 and 11.3333 and 16.3333
14-3-3β 1.14063e-6 M
  FP signal: 66 and 63 and 57
14-3-3β 1.95313e-6 M, listed as FC
  Polarization: 98 and 96 and 97
